Data: patent US8192962B2, “Processes for detecting toxic substances” (Daikin Industries, Ltd., priority 2001, dated 2012)

System: Transport facilitation protein genes
Test: DNA chip mRNA expression in yeast, transport facilitation protein genes (Table 5)
Type: cell-based, Saccharomyces cerevisiae S288C
In short: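 In this screen, yeast in logarithmic growth are challenged for two hours with a toxic substance at a non-lethal inhibitory concentration. Their mRNA, converted to Cy3- or Cy5-labeled cDNA, hybridizes at 65° C. to a chip spanning every yeast gene, and expression is expressed as a ratio to untreated cells.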

## [Cl][Cd][Cl] [(2), CdCl2]
Yeast gene YBL030C
  The level of expressed mRNA in the presence of chemical substance/The level of expressed mRNA in the absence of chemical substance: 0.9
Yeast gene YBL099W
  The level of expressed mRNA in the presence of chemical substance/The level of expressed mRNA in the absence of chemical substance: 0.9
Yeast gene YBR052C
  The level of expressed mRNA in the presence of chemical substance/The level of expressed mRNA in the absence of chemical substance: 1.6
Yeast gene YBR068C
  The level of expressed mRNA in the presence of chemical substance/The level of expressed mRNA in the absence of chemical substance: 1.0
Yeast gene YBR127C
  The level of expressed mRNA in the presence of chemical substance/The level of expressed mRNA in the absence of chemical substance: 0.7
Yeast gene YBR132C
  The level of expressed mRNA in the presence of chemical substance/The level of expressed mRNA in the absence of chemical substance: 1.9
Yeast gene YBR207W
  The level of expressed mRNA in the presence of chemical substance/The level of expressed mRNA in the absence of chemical substance: 1.7
Yeast gene YBR293W
  The level of expressed mRNA in the presence of chemical substance/The level of expressed mRNA in the absence of chemical substance: 3.1
Yeast gene YBR294W
  The level of expressed mRNA in the presence of chemical substance/The level of expressed mRNA in the absence of chemical substance: 14.4
Yeast gene YBR295W
  The level of expressed mRNA in the presence of chemical substance/The level of expressed mRNA in the absence of chemical substance: 1.5
Yeast gene YBR298C
  The level of expressed mRNA in the presence of chemical substance/The level of expressed mRNA in the absence of chemical substance: 1.0
Yeast gene YCL025C
  The level of expressed mRNA in the presence of chemical substance/The level of expressed mRNA in the absence of chemical substance: 4.6
Yeast gene YCL038C
  The level of expressed mRNA in the presence of chemical substance/The level of expressed mRNA in the absence of chemical substance: 1.6
Yeast gene YCR024C-A
  The level of expressed mRNA in the presence of chemical substance/The level of expressed mRNA in the absence of chemical substance: 0.9
Yeast gene YCR037C
  The level of expressed mRNA in the presence of chemical substance/The level of expressed mRNA in the absence of chemical substance: 1.0
Yeast gene YCR098C
  The level of expressed mRNA in the presence of chemical substance/The level of expressed mRNA in the absence of chemical substance: 3.0
Yeast gene YDL128W
  The level of expressed mRNA in the presence of chemical substance/The level of expressed mRNA in the absence of chemical substance: 1.1
Yeast gene YDL198C
  The level of expressed mRNA in the presence of chemical substance/The level of expressed mRNA in the absence of chemical substance: 1.0
Yeast gene YDL210W
  The level of expressed mRNA in the presence of chemical substance/The level of expressed mRNA in the absence of chemical substance: 2.2
Yeast gene YDL245C
  The level of expressed mRNA in the presence of chemical substance/The level of expressed mRNA in the absence of chemical substance: 2.4
Yeast gene YDR038C
  The level of expressed mRNA in the presence of chemical substance/The level of expressed mRNA in the absence of chemical substance: 1.3
Yeast gene YDR039C
  The level of expressed mRNA in the presence of chemical substance/The level of expressed mRNA in the absence of chemical substance: 1.6
Yeast gene YDR086C
  The level of expressed mRNA in the presence of chemical substance/The level of expressed mRNA in the absence of chemical substance: 1.0
Yeast gene YDR270W
  The level of expressed mRNA in the presence of chemical substance/The level of expressed mRNA in the absence of chemical substance: 1.5
Yeast gene YDR298C
  The level of expressed mRNA in the presence of chemical substance/The level of expressed mRNA in the absence of chemical substance: 1.2
Yeast gene YDR342C
  The level of expressed mRNA in the presence of chemical substance/The level of expressed mRNA in the absence of chemical substance: 1.1
Yeast gene YDR343C
  The level of expressed mRNA in the presence of chemical substance/The level of expressed mRNA in the absence of chemical substance: 1.0
Yeast gene YDR345C
  The level of expressed mRNA in the presence of chemical substance/The level of expressed mRNA in the absence of chemical substance: 0.9
Yeast gene YDR387C
  The level of expressed mRNA in the presence of chemical substance/The level of expressed mRNA in the absence of chemical substance: 0.9
Yeast gene YDR497C
  The level of expressed mRNA in the presence of chemical substance/The level of expressed mRNA in the absence of chemical substance: 0.5
Yeast gene YEL027W
  The level of expressed mRNA in the presence of chemical substance/The level of expressed mRNA in the absence of chemical substance: 0.6
Yeast gene YEL063C
  The level of expressed mRNA in the presence of chemical substance/The level of expressed mRNA in the absence of chemical substance: 0.8
Yeast gene YEL065W
  The level of expressed mRNA in the presence of chemical substance/The level of expressed mRNA in the absence of chemical substance: 3.8
Yeast gene YER053C
  The level of expressed mRNA in the presence of chemical substance/The level of expressed mRNA in the absence of chemical substance: 1.8
Yeast gene YFL011W
  The level of expressed mRNA in the presence of chemical substance/The level of expressed mRNA in the absence of chemical substance: 0.7
Yeast gene YFL041W
  The level of expressed mRNA in the presence of chemical substance/The level of expressed mRNA in the absence of chemical substance: 1.6
Yeast gene YFL050C
  The level of expressed mRNA in the presence of chemical substance/The level of expressed mRNA in the absence of chemical substance: 1.0
Yeast gene YFL054C
  The level of expressed mRNA in the presence of chemical substance/The level of expressed mRNA in the absence of chemical substance: 1.1
Yeast gene YGL006W
  The level of expressed mRNA in the presence of chemical substance/The level of expressed mRNA in the absence of chemical substance: 1.3
Yeast gene YGL008C
  The level of expressed mRNA in the presence of chemical substance/The level of expressed mRNA in the absence of chemical substance: 0.7
Yeast gene YGL104C
  The level of expressed mRNA in the presence of chemical substance/The level of expressed mRNA in the absence of chemical substance: 2.0
Yeast gene YGL167C
  The level of expressed mRNA in the presence of chemical substance/The level of expressed mRNA in the absence of chemical substance: 0.7
Yeast gene YGL255W
  The level of expressed mRNA in the presence of chemical substance/The level of expressed mRNA in the absence of chemical substance: 0.9
Yeast gene YGR055W
  The level of expressed mRNA in the presence of chemical substance/The level of expressed mRNA in the absence of chemical substance: 5.7
Yeast gene YGR065C
  The level of expressed mRNA in the presence of chemical substance/The level of expressed mRNA in the absence of chemical substance: 1.5
Yeast gene YGR082W
  The level of expressed mRNA in the presence of chemical substance/The level of expressed mRNA in the absence of chemical substance: 0.9
Yeast gene YGR096W
  The level of expressed mRNA in the presence of chemical substance/The level of expressed mRNA in the absence of chemical substance: 1.0
Yeast gene YGR138C
  The level of expressed mRNA in the presence of chemical substance/The level of expressed mRNA in the absence of chemical substance: 1.6
Yeast gene YGR191W
  The level of expressed mRNA in the presence of chemical substance/The level of expressed mRNA in the absence of chemical substance: 0.7
Yeast gene YGR197C
  The level of expressed mRNA in the presence of chemical substance/The level of expressed mRNA in the absence of chemical substance: 2.4
